This experiment addresses T1, rhDectin-2 (Homo sapiens, UniProt Q6EIG7).
T1 sequence (Q6EIG7 42-209 limits assumed): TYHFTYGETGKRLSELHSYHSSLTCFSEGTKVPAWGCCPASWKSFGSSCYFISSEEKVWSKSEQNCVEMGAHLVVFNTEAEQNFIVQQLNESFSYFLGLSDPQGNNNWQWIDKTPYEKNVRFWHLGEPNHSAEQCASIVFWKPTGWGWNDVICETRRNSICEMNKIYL
Kind of experiment: biolayer interferometry. It is filed as binding.

pKd: −log10 of the molar value.

The compound `C=CCO[C@H]1O[C@H](CO)[C@@H](OP(=O)(O)O[C@H]2O[C@H](CO)[C@@H](O)[C@H](O)[C@@H]2O)[C@H](O)[C@@H]1O` [compound 7, Allyl α-D-mannopyranoside α-D-mannopyranosyl-4-sodium phosphate] gave a pKd of 4.87.

The record behind these values is PMC10957239 (Carbohydrate research, 2024).
